Assay results: the supplement of paper PMC10290057
Where a name gives a salt, the structure may show the parent alone.

Assays:
HCT116 [1] = assay: AC50 cell viability (CellTiter-Glo); higher = less potent; settings: 48 h
HCT116 [2] = assay: efficacy (fitted maximal change in viability relative to DMSO control); higher = less cytotoxic (negative = loss of viability); settings: 48 h
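Wherever AC50 cell viability (CellTiter-Glo) is given: HCT116 colorectal carcinoma cells screened at five concentrations per compound, luminescent viability scaled between DMSO wells and empty wells on each plate, curves fitted per compound.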
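Wherever efficacy (fitted maximal change in viability relative to DMSO control) is given: Luminescence-based viability readout, five doses per compound, normalized against on-plate DMSO and empty-well controls, followed by dose-response curve fitting for every drug.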

SMILES	AC50 cell viability (HCT116 [1])	efficacy (HCT116 [2])
COC1=CC=C(C(=C1)OC(C)C)C/2=N/[C@@H]([C@@H](N2C(=O)N3CCNC(=O)C3)C4=CC=C(Cl)C=C4)C5=CC=C(Cl)C=C5 [Nutlin-3]	23.5 µM	-98.3%
NC1CCC(N[C@@H]2C[C@H]2c2ccccc2)CC1 (stereo partly specified) [ORY-1001]	16.6 µM	-36%
COc1cccc2cc(-c3nc([C@H]4CC[C@H](C(=O)O)CC4)n4ncnc(N)c34)[nH]c12 [OSI-027]	11.8 µM	-94.5%
C#Cc1cccc(Nc2ncnc3cc(OCCOC)c(OCCO)cc23)c1 [OSI-420]	6.61 µM	-76.6%
NC(=O)c1c(OCc2c(F)cc(Br)cc2F)nsc1NC(=O)NCCCCN1CCCC1 [OSI-632]	23.5 µM	-100%
O=C(Nc1ccc(OC(F)(F)F)cc1)c1sccc1NCc1ccnc2ccccc12 [OSI-930]	10.5 µM	-77.4%
CNC(=O)CCc1cc(-c2ccc(-c3ccc(C(F)(F)F)cc3)cc2)n(-c2ccc(N3CCNCC3)cc2)n1 [OSU-T315]	6.61 µM	-90.4%
Cc1cc(O)c(-c2ccc([C@@H](C)CN(C)C)cc2)c2c1[nH]c(=O)c1sccc12 [OTS964]	0.0295 µM	-63.1%
CC(=O)c1cnc2ccc(-c3cc(Cl)c(O)c(Cl)c3)nc2c1N[C@H]1CC[C@H](CN(C)C)CC1 [OTS-167]	0.0539 µM	-70.5%
Nc1nccn2c1c(-c1cc3cccc(Cl)c3[nH]1)nc2[C@H]1CC[C@H](C(=O)O)CC1 [OXA-01]	9.34 µM	-65.8%
COC1=CC(c2cc3ccccc3[nH]2)=N/C1=C/c1[nH]c(C)cc1C [Obatoclax]	1.66 µM	-90%
CC[C@H]1/C=C\C=C/C[C@@H](C)[C@H](O)[C@@](C)(O)C(=O)[C@@H](C)[C@H](O)[C@@H](C)C(=O)[C@@H](C)[C@H](O)[C@@H](C)/C=C/C(=O)O[C@@H]2[C@H](C)[C@H](CC1)O[C@]1(CC[C@H](C)[C@H](C[C@@H](C)O)O1)[C@H]2C [Oligomycin A]	16.6 µM	-112%
C=CC(=O)Nc1cccc(Oc2nc(Nc3ccc(N4CCN(C)CC4)cc3)nc3ccsc23)c1 [Olmutinib]	8.33 µM	-98.2%
COC(=O)C[C@](O)(CCCC(C)(C)O)C(=O)O[C@@H]1C(OC)=CC23CCCN2CCc2cc4c(cc2[C@H]13)OCO4 (stereo partly specified) [Omacetaxine mepesuccinate]	0.0235 µM	-68.3%
CC1(C)CC[C@@]2(CC[C@]3(C)[C@@H]([C@@H]2C1)C(=O)\C=C\4[C@@]3(C)CC[C@H]5C(C)(C)C(=O)\C(=C/[C@]45C)C#N)NC(=O)C(C)(F)F [Omaveloxolone]	5.9 µM	-91.5%
COc1ccc(/C=C\c2cc(OC)c(OC)c(OC)c2)cc1NC(=O)[C@H](N)CO [Ombrabulin]	0.148 µM	-62.9%
CC(C)c1cc(C(=O)N2Cc3ccc(CN4CCN(C)CC4)cc3C2)c(O)cc1O [Onalespib]	0.118 µM	-54.3%
COC[C@H](NC(=O)c1cnc(C)s1)C(=O)N[C@@H](COC)C(=O)N[C@@H](Cc1ccccc1)C(=O)[C@@]1(C)CO1 [Oprozomib]	0.0742 µM	-88.1%
Cc1[nH]c(/C=C2\C(=O)Nc3ccccc32)c(C)c1CCC(=O)O [Orantinib]	23.5 µM	-49.3%
C=C1C(=O)[C@@]23C(CC[C@@H]1[C@H]2O)[C@@]12CO[C@]3(O)[C@@H](O)[C@@H]1C(C)(C)CC[C@@H]2O (stereo partly specified) [Oridonin]	13.2 µM	-98.8%

SMILES	AC50 cell viability (HCT116 [1])	efficacy (HCT116 [2])
C=CC(=O)Nc1cc(Nc2nccc(-c3cn(C)c4ccccc34)n2)c(OC)cc1N(C)CCN(C)C [Osimertinib mesylate]	8.33 µM	-103%
C[C@](O)(COc1ccc(C#N)cc1)C(=O)Nc1ccc(C#N)c(C(F)(F)F)c1 [Ostarine]	20.9 µM	-91.5%
CCNC1(C(N)=O)CCN(c2ncnc3c2nc(-c2ccccc2Cl)n3-c2ccc(Cl)cc2)CC1 [Otenabant]	23.5 µM	-97.3%
O=C1[O][Pt]2([NH]C3CCCCC3[NH]2)[O]C1=O (stereo unspecified) [Oxaliplatin]	9.11 µM	-42.2%
O=C(/C=C/C#Cc1cccc(N[S+](=O)([O-])c2ccccc2)c1)NO [Oxamflatin]	1.02 µM	-99.5%
COC(=O)Nc1nc2cc([S+]([O-])c3ccccc3)ccc2[nH]1 (stereo unspecified) [Oxfendazole]	6.61 µM	-47.9%
CCCOc1ccc2[nH]c(NC(=O)OC)nc2c1 [Oxibendazole]	0.295 µM	-64.9%
O=C(c1ccc(Nc2nc(C3CC3)cn3c(-c4cn[nH]c4)cnc23)c(F)c1)N1CCOCC1 [P21d hydrochloride]	14.8 µM	-86.2%
C=CCc1cccc(/C=N/NC(=O)CN2CCN(Cc3ccccc3)CC2)c1O [PAC-1]	7.42 µM	-94.4%
COc1cccc2c1CCCC2CCCN1CCN(C2CCCCC2)CC1 (stereo unspecified) [PB-28]	16.6 µM	-91.3%
COc1ccc(-c2c(-c3ccc(O)cc3O)n[nH]c2C)cc1 [PDHK RIKEN]	20.9 µM	-47.1%
Cc1cc(C[S+](=O)([O-])c2ccccc2)cc(OCc2ccc(CN3CCC[C@@H]3CO)cc2)c1 [PF-543]	16.6 µM	-92.7%
O=C(Nc1cccnc1)N1CCC(Cc2cccc(Oc3ccc(C(F)(F)F)cn3)c2)CC1 [PF-3845]	13.2 µM	-82.1%
CCCOc1ccc(CCc2nc3cc(-c4c(C)noc4C)ccc3n2CCN2CCOCC2)cc1 [PF-CBP1]	14.8 µM	-94.5%
O=C(/C=C/c1ccc2ccc(C(F)(F)F)cc2n1)c1ccncc1 [PFK-158]	3.72 µM	-89%
CN1CCN(c2cc(C(=O)Nc3ccc4c(c3)-c3c(c(C(N)=O)nn3-c3ccc(F)cc3)CC4)c(Cl)cn2)CC1 [PHA-408]	20.9 µM	-98.2%
Oc1cccc(-c2nc(N3CCOCC3)c3oc4ncccc4c3n2)c1 [PI-103]	1.32 µM	-57.3%
Fc1ccc2[nH]ccc2c1-c1nc(N2CCOCC2)c2sc(CN3CCN(CC4CC4)CC3)cc2n1 [PI-3065]	18.6 µM	-95.1%
Cc1ccc([N+](=O)[O-])cc1[S+](=O)([O-])N(C)/N=C/c1cnc2ccc(Br)cn12 [PIK-75]	0.0525 µM	-60.8%
COC1=CC=C2/C3=N/CCN3\C(=N/C2=C1OC)NC(=O)C4=CC=CN=C4 [PIK-90]	0.263 µM	-37.1%

SMILES	AC50 cell viability (HCT116 [1])	efficacy (HCT116 [2])
CC(=O)Nc1nc(C)c(-c2ccc(Cl)c([S+](=O)([O-])NCCO)c2)s1 [PIK-93]	8.33 µM	-85.9%
C[C@@H](Nc1ncnc2[nH]c(-c3ccc(O)cc3)cc12)c1ccccc1 [PKI-166]	14.8 µM	-84.7%
CCn1nnc2c(N3CCOCC3)nc(-c3ccc(NC(=O)Nc4ccc(C(=O)N5CCN(C)CC5)cc4)cc3)nc21 [PKI-402]	0.118 µM	-64.4%
FC(F)(F)c1ccc(C/N=c2\ccc(Cc3c[nH]c4ncccc34)c[nH]2)cc1 [PLX-647]	13.2 µM	-76.1%
CCC[S+](=O)([O-])Nc1ccc(F)c(C(=O)c2c[nH]c3ncc(Cl)cc23)c1F [PLX-4720]	16.6 µM	-38.4%
CCN(C)[S+](=O)([O-])Nc1ccc(F)c(C(=O)c2c[nH]c3ncc(-c4cnc(C5CC5)nc4)cc23)c1F [PLX-7904]	16.6 µM	-69.9%
O=C(c1c(F)ccc(N[S+](=O)([O-])N2CC[C@@H](F)C2)c1F)c1c[nH]c2ncc(-c3cnc(C4CC4)nc3)cc12 [PLX-8394]	13.2 µM	-51.7%
Nc1ncnc2c1c(-c1cnc3[nH]ccc3c1)nn2C1CCCC1 [PP-121]	2.63 µM	-86.5%
CN[S+](=O)([O-])c1ccc2c(c1)/C(=C/c1[nH]c3c(c1CCCN1CCN(C)CC1)CCCC3)C(=O)N2 [PRP01-012]	14.8 µM	-103%
CCc1ccc(C(=O)Nc2cc(CN3CCN(C)CC3)cc(C(F)(F)F)c2)cc1C#Cc1cnc2ccnn2c1 [PRP003-013]	4.68 µM	-100%
COC(C)(C)CCn1nc(Nc2c(C)cccc2C)c2cnc(Nc3ccc(OCCN4CCCC4)c(F)c3)nc21 [PRP003-032]	14.8 µM	-122%
FC(F)(F)c1ccc(Nc2nc(-c3c(C(F)(F)F)nc4ccccn34)cs2)cc1 [PTC-691]	0.332 µM	-73.4%
CC(C)NCCCn1c(Sc2cc(Cl)cc(Cl)c2)nc2c(N)ncnc21 [PU-WS-13]	20.9 µM	-82.4%
CCC(C)SSc1ncc[nH]1 (stereo unspecified) [PX-12]	18.6 µM	-88.8%
COC1=CC=C2Nc3cc(Cl)ccc3C(N=C3C=C(CN4CCCC4)C(=O)C(CN4CCCC4)=C3)=C2N1 [PYRONARIDINE TETRAPHOSPHATE]	9.34 µM	-76.4%
C1=CC2=N/C(=N\c3ccc(OCCN4CCCC4)c(c3)COC/C=C/COCc3cccc2c3)N1 [Pacritinib]	1.86 µM	-89.9%
CC(=O)C\1=C(/C)C2=CN=C(NC3=CC=C(C=N3)N4CCNCC4)N=C2N(C5CCCC5)C1=O [Palbociclib]	16.6 µM	-109%
Cc1[nH]c2ccccc2c1CCNCc1ccc(/C=C/C(=O)NO)cc1 [Panobinostat]	0.0468 µM	-87.7%
